Assay results taken from patent publication US11020340B2, “Compositions containing natural products and use thereof for skin and hair” (Seiberg Consulting, LLC, priority 2017, dated 2021).

Assay: ROS-Glo H2O2 assay: removal or elimination of added hydrogen peroxide
Type: biochemical
Conditions: for microM H2O2: Table 2A calibration; for microM H2O2 / Hydrogen peroxide levels, Micro Molar H2O2: 30 minutes at room temperature; for Hydrogen peroxide levels, Micro Molar H2O2: Table 2B
Protocol: Broken-up algae powders (two independent batches) and the prototype formulations of Table 1A were evaluated for their biological activity in the removal or elimination of hydrogen peroxide by using the ROS-Glo™ H2O2 assay kit (Promega). The ROS-Glo™ H2O2 assay is a homogeneous, rapid and sensitive luminescent assay that measures the level of hydrogen peroxide directly in cell culture or in defined reactions. This assay allows identification of conditions or test compounds, such as small molecule inhibitors or inducers that alter ROS levels. An H2O2 Substrate is employed that reacts directly with H2O2 to generate a luciferin precursor. Upon addition of ROS-Glo™ Detection Reagent containing Ultra-Glo™ Recombinant Luciferase and Cysteine, the precursor is converted to luciferin by the d-Cysteine, and the produced luciferin reacts with Ultra-Glo™ Recombinant Luciferase to generate a luminescent signal that is proportional to H2O2 concentration. In the current study H2O2 was added into the reaction wells and the H2O2-degrading activity of the test agents, at various concentrations, was evaluated after 30 minutes of exposure at room temperature. Glutathione (GSH) served as a positive control and the luminescence results (RLU) of different GSH concentrations were calibrated to hydrogen peroxide concentrations (see Table 2A).
In a similar study, one batch of broken-up Porphyridium powder was evaluated for the same biological activity before and after gamma irradiation. The gamma irradiation used was considered weak, and ranged from about 5 to about 15 kGy.
A broken-up algae powder preparation was evaluated for biological activity (removal or elimination of hydrogen peroxide) using the ROS-Glo™ H2O2 assay kit (Promega), as described in Example 2. The powder was suspended in water and used “as is” (non-denatured) for the assay, or was heated to 100 C for 30 minutes to achieve a complete denaturation. Upon heating, the preparation changed its color from red/pink to yellow/green or to light yellow/colorless.

For `N[C@@H](CCC(=O)N[C@@H](CS)C(=O)NCC(=O)O)C(=O)O` [GSH, Glutathione], the “microM H2O2” value (GSH 0.025 %) was 151.69 µM, the “microM H2O2” value (GSH 0.050 %) was 105.32 µM and the “microM H2O2” value (GSH 0.100 %) was 67.84 µM. For the same compound, the “microM H2O2” value (GSH 0.200 %) was 45.76 µM, the “microM H2O2” value (GSH 0.400 %) was 14.26 µM and the “microM H2O2” value (GSH 0.800 %) was -7.13 µM. For the same compound, the “microM H2O2” value (GSH 1.000 %) was -10.27 µM, the “Hydrogen peroxide levels, Micro Molar H2O2” value (shortened to “Hydrogen peroxide levels”) (0.025 % test agent) was 139.566 Micro Molar and the “Hydrogen peroxide levels” value (0.050 % test agent) was 112.262 Micro Molar. For the same compound, the “Hydrogen peroxide levels” value (0.100 % test agent) was 76.093 Micro Molar, the “Hydrogen peroxide levels” value (0.200 % test agent) was 53.453 Micro Molar and the “Hydrogen peroxide levels” value (0.400 % test agent) was 25.850 Micro Molar. For the same compound, the “Hydrogen peroxide levels” value (0.800 % test agent) was −6.940 Micro Molar, the “Hydrogen peroxide levels” value (1.000 % test agent) was −8.278 Micro Molar and the “Micro Molar H2O2” value (Table 2C, 0.0025 % Test/Ref) was 58.797 Micro Molar. For the same compound, the “Micro Molar H2O2” value (Table 2C, 0.0050 % Test/Ref) was 49.344 Micro Molar, the “Micro Molar H2O2” value (Table 2C, 0.0100 % Test/Ref) was 52.736 Micro Molar and the “Micro Molar H2O2” value (Table 2C, 0.0250 % Test/Ref) was 41.413 Micro Molar. For the same compound, the “Micro Molar H2O2” value (Table 2C, 0.0500 % Test/Ref) was 28.936 Micro Molar, the “Micro Molar H2O2” value (Table 2C, 0.1000 % Test/Ref) was 16.548 Micro Molar and the “Micro Molar H2O2” value (Table 2C, 0.2500 % Test/Ref) was 6.375 Micro Molar. For the same compound, the “Micro Molar H2O2” value (Table 2C, 0.5000 % Test/Ref) was −9.043 Micro Molar, the “Micro Molar H2O2” value (Table 3, 0.025 % test agent) was 141.3439 Micro Molar and the “Micro Molar H2O2” value (Table 3, 0.05 % test agent) was 98.16 Micro Molar. The “Micro Molar H2O2” value (Table 3, 0.1 % test agent) was 53.43 Micro Molar, the “Micro Molar H2O2” value (Table 3, 0.2 % test agent) was 10.87 Micro Molar and the “Micro Molar H2O2” value (Table 3, 0.4 % test agent) was −14.384 Micro Molar. For the same compound, the “Micro Molar H2O2” value (Table 3, 0.8 % test agent) was −14.5708 Micro Molar.
